Values of other authors, collected in patent US20070243232A1, “Method to treat and prevent asthma attacks using throat lozenges and orally-retained liquids containing magnesium” (priority 2006, published 2007).

Settings: injections in the 200 mg range

Structure (SMILES): O=S(=O)([O-])[O-].[Mg+2] [magnesium sulfate]
- efficacy in treating asthma and effecting a rescue: modestly effective
